The test system of one assay is TT (RET C634W) cells. Nature of the assay: Cell proliferation assay (MTS), TT cells. It is filed as cell-based. Particulars: 72 h incubation, MTS readout. As to the method:
(§1) MTS testing kit was purchased from Promega. The RPMI-1640, F12, F12K, Fetal bovine serum and Penicillin-Streptomycin were purchased from BI. Glutamine and Dimethyl sulfoxide (DMSO) were purchased from Sigma. TT cells were cultured in F12K supplemented with 10% FBS and LC-2/ad cells were cultured in HamF12: RPMI1640 (1:1) supplemented with 10% FBS and 2 mM Glutamine.
(§2) To investigate whether a compound is able to inhibit the activity of RET fusion and/or mutation in cells, a mechanism-based assay using TT (RET C634W) and LC-2/ad (CCDCl6-RET) cell lines was developed. In this assay, the inhibition of RET fusion and/or mutation was reflected by the inhibition of cell proliferation of TT and LC-2/ad cells. Cells were plated into 96-well plates at the optimized cell density (TT: 5000 cells/well; LC-2/ad: 5000 cells/well). Plates were incubated at 37° C., with 5% CO2 for 24 h. Compounds were serially diluted and added to the plates with the final concentrations as 10000, 3333.3, 1111.1, […], 123.5, 41.2, 13.7, 4.6 and 1.5 nM. Plates were incubated at 37° C., with 5% CO2 for 72 h. An aliquot of 20 μL MTS/100 μL medium mixture solution were added to each well and the plates were incubated for exactly 2 h. The reaction was stopped by adding 25 μL 10% SDS to each well. The absorbance was measured by a microplate reader at 490 nm and 650 nm (reference wavelength). IC50 was calculated using GraphPad Prism 5.0.

Assay [1] has as its system LC-2/ad (CCDCl6-RET) cells. The assay is described as follows: Cell proliferation assay (MTS), LC-2/ad cells. Particulars: LC-2/ad cells (CCDCl6-RET), 72 h incubation, MTS readout. It is filed as cell-based. As to the method: as §1, §2

With `Cn1cc(-c2cc(-c3ccc(N4CCC(O)(Cc5ccccc5)CC4)nc3)n3c(C#N)cnc3c2)cn1` [Example 22, 5-(6-(4-benzyl-4-hydroxypiperidin-1-yl)pyridin-3-yl)-7-(1-methyl-1H-pyr-azol-4-yl)imidazo[1,2-a]pyridine-3-carbonitrile], the IC50 came to 4 nM with TT (RET C634W) cells (Homo sapiens, TT, 72 h) and 1 nM in assay [1] (Homo sapiens, LC-2-ad, 72 h).

Regarding `COc1ccc(CN2CCN(c3ccc(-c4cc(-c5cnn(CCN6CCOCC6)c5)cc5ncc(C#N)n45)cn3)CC2)cn1` [Example 26, 5-(6-(4-((6-methoxypyridin-3-yl)meth-yl)piperazin-1-yl)pyridin-3-yl)-7-(1-(2-morpholinoethyl)-1H-pyrazol-4-yl)imidazo[1,2-a]pyridine-3-carbonitrile], the half-maximal inhibitory concentration (IC50) with TT (RET C634W) cells (Homo sapiens, TT, 72 h) worked out at 74 nM; in assay [1] (Homo sapiens, LC-2-ad, 72 h), 89 nM.

For the compound `COc1ccc(CN2CCN(c3ccc(-c4cc(-c5cnn(CCOC(C)C)c5)cc5ncc(C#N)n45)cn3)CC2)cn1` [Example 27, 7-(1-(2-isopropoxyethyl)-1H-pyrazol-4-yl)-5-(6-(4-((6-methoxypyridin-3-yl)methyl)piperazin-1-yl)pyridin-3-yl) imidazo[1,2-a]pyridine-3-carbonitrile], the half-inhibitory concentration (IC50) in the assay with TT (RET C634W) cells (Homo sapiens, TT, 72 h) turned out to be 65 nM; in assay [1] (Homo sapiens, LC-2-ad, 72 h), 39 nM.

Turning to `Cn1cc(-c2cc(-c3ccc(N4CCN(Cc5ccccc5)CC4)nc3)n3c(C#N)cnc3c2)cn1` [Example 33, 5-(6-(4-benzylpiperazin-1-yl)pyridin-3-yl)-7-(1-methyl-1H-pyrazol-4-yl) imidazo[1,2-a]pyridine-3-carbonitrile], the IC50 was determined as 34 nM in the assay with TT (RET C634W) cells (Homo sapiens, TT, 72 h) and 17 nM in assay [1] (Homo sapiens, LC-2-ad, 72 h).

On to `Cn1cc(-c2cc(-c3ccc(N4CCN(Cc5ccn(C)n5)CC4)nc3)n3c(C#N)cnc3c2)cn1` [Example 37, 5-(6-(4-((1-methyl-1H-pyrazol-3-yl)methyl)piperazin-1-yl)pyridin-3-yl)-7-(1-methyl-1H-pyrazol-4-yl)imidazo [1,2-a]pyridine-3-carbonitrile], for which the IC50 stood at 45 nM in the assay with TT (RET C634W) cells (Homo sapiens, TT, 72 h) and 41 nM in assay [1] (Homo sapiens, LC-2-ad, 72 h).

In the case of `Cn1cc(-c2cc(-c3ccc(N4CCN(CCS(=O)(=O)c5ccccc5)CC4)nc3)n3c(C#N)cnc3c2)cn1` [Example 38, 7-(1-methyl-1H-pyrazol-4-yl)-5-(6-(4-(2-(phenylsulfonyl)ethyl)piperazin-1-yl)pyridin-3-yl)imidazo[1,2-a]pyr-idine-3-carbonitrile], the IC50 in the assay with TT (RET C634W) cells (Homo sapiens, TT, 72 h) was found to be 38 nM; in assay [1] (Homo sapiens, LC-2-ad, 72 h), 34 nM.

Take `Cn1cc(-c2cc(-c3ccc(N4CCN(C(=O)Cc5ccccn5)CC4)cc3)n3c(C#N)cnc3c2)cn1` [Example 45, 7-(1-methyl-1H-pyrazol-4-yl)-5-(4-(4-(2-(pyridin-2-yl)acetyl)piperazin-1-yl)phenyl)imidazo[1,2-a]pyridine-3-carbonitrile]: the IC50 turned out to be 66 nM in the assay with TT (RET C634W) cells (Homo sapiens, TT, 72 h) and 50 nM in assay [1] (Homo sapiens, LC-2-ad, 72 h).

With `Cn1cc(-c2cc(-c3ccc(N4CCN(C(=O)Cc5ccccn5)CC4)nc3)n3c(C#N)cnc3c2)cn1` [Example 46, 7-(1-methyl-1H-pyrazol-4-yl)-5-(6-(4-(2-(pyridin-2-yl)acetyl)piperazin-1-yl)pyridin-3-yl)imidazo[1,2-a]pyri-dine-3-carbonitrile], the 50% inhibitory concentration (IC50) in the assay on TT (RET C634W) cells (Homo sapiens, TT, 72 h) was determined as 37 nM; in assay [1] (Homo sapiens, LC-2-ad, 72 h) it was 36 nM.

As for `CC(C)CC(=O)N1CCN(c2ccc(-c3cc(-c4cnn(C)c4)cc4ncc(C#N)n34)cn2)CC1` [Example 48, 7-(1-methyl-1H-pyrazol-4-yl)-5-(6-(4-(3-methylbutanoyl)piperazin-1-yl)pyridin-3-yl)imidazo[1,2-a]pyridine-3-carbonitrile], the concentration for half-maximal inhibition (IC50) with TT (RET C634W) cells (Homo sapiens, TT, 72 h) was 77 nM; in assay [1] (Homo sapiens, LC-2-ad, 72 h), 50 nM.

For `COC(CNC(=O)N1CCN(c2ccc(-c3cc(-c4cnn(C)c4)cc4ncc(C#N)n34)cn2)CC1)C(C)C` (stereo not drawn) [Example 50, 4-(5-(3-cyano-7-(1-methyl-1H-pyrazol-4-yl)imidazo[1,2-a]pyridin-5-yl)pyridin-2-yl)-N-(2-methoxy-3-methyl-butyl)piperazine-1-carboxamide], the IC50 with TT (RET C634W) cells (Homo sapiens, TT, 72 h) was 14 nM; in assay [1] (Homo sapiens, LC-2-ad, 72 h), 30 nM.

For `CC(C)OCCN1CCN(c2ccc(-c3cc(-c4cnn(C)c4)cc4ncc(C#N)n34)cn2)CC1` [Example 51, 5-(6-(4-(2-isopropoxyethyl)piperazin-1-yl)pyridin-3-yl)-7-(1-methyl-1H-pyrazol-4-yl)imidazo[1,2-a]pyridine-3-carbonitrile], the IC50 was 44 nM in the assay with TT (RET C634W) cells (Homo sapiens, TT, 72 h) and 40 nM in assay [1] (Homo sapiens, LC-2-ad, 72 h).

For the compound `Cn1cc(-c2cc(-c3ccc(N4CCN(Cc5ccccn5)CC4)nc3)n3c(C#N)cnc3c2)cn1` [Example 52, 7-(1-methyl-1H-pyrazol-4-yl)-5-(6-(4-(pyridin-2-ylmethyl)piperazin-1-yl)pyridin-3-yl)imidazo[1,2-a]pyridine-3-carbonitrile], the IC50 worked out at 24 nM in the assay with TT (RET C634W) cells (Homo sapiens, TT, 72 h) and 42 nM in assay [1] (Homo sapiens, LC-2-ad, 72 h).

Turning to `COc1ccc(CN2C3CC2CN(c2ccc(-c4cc(OCC5(O)CC5)cc5ncc(C#N)n45)cn2)C3)cn1` [Example 57A, 7-((1-Hydroxycyclopropyl)methoxy)-5-(6-(6-((6-methoxypyridin-3-yl)methyl)-3,6-diazabicyclo[3.1.1]heptan-3-yl)pyridin-3-yl)imidazo[1,2-a]pyridine-3-carbonitrile], the IC50 in the assay on TT (RET C634W) cells turned out to be 33 nM; in assay [1] (Homo sapiens, LC-2-ad, 72 h), 81 nM.

In the case of `COc1ccc(CN2C3CC2CN(c2ccc(-c4cc(OCC5(O)CC5)cc5ncc(C#N)n45)cn2)C3)cn1` [Example 57B, 7-((1-Hydroxycyclopropyl)methoxy)-5-(6-(6-((6-methoxypyridin-3-yl)methyl)-3,6-diazabicyclo[3.1.1]heptan-3-yl)pyridin-3-yl)imidazo[1,2-a]pyridine-3-carbonitrile], the half-inhibitory concentration (IC50) was 127 nM in the assay on TT (RET C634W) cells and 115 nM in assay [1].

On to `COc1ccc(CN2C3CC2CN(c2ccc(-c4cc(OCCC(O)C(F)(F)F)cc5ncc(C#N)n45)cn2)C3)cn1` (stereo not drawn) [Example 59, 5-(6-(6-((6-Methoxypyridin-3-yl)methyl)-3,6-diazabicyclo[3.1.1]heptan-3-yl)pyridin-3-yl)-7-(4,4,4-trifluoro-3-hydroxybutoxy)imidazo[1,2-a]pyridine-3-carbonitrile], for which the IC50 with TT (RET C634W) cells (Homo sapiens, TT, 72 h) was found to be 126 nM; in assay [1] (Homo sapiens, LC-2-ad, 72 h), 64 nM.

As for `COc1ccc(OC2CCN(c3ccc(-c4cc(OCC(C)(C)O)cc5ncc(C#N)n45)cn3)CC2)cn1` [Example 60, 7-(2-Hydroxy-2-methylpropoxy)-5-(6-(4-((6-methoxypyridin-3-yl)oxy)piperidin-1-yl)pyridin-3-yl)imidazo[1,2-a]pyridine-3-carbonitrile], the half-maximal inhibitory concentration (IC50) is 3 nM in the assay with TT (RET C634W) cells (Homo sapiens, TT, 72 h) and 9 nM in assay [1] (Homo sapiens, LC-2-ad, 72 h).

As to `CC(C)(O)COc1cc(-c2ccc(N3CCC(Oc4ccccn4)CC3)nc2)n2c(C#N)cnc2c1` [Example 64, 7-(2-hydroxy-2-methylpropoxy)-5-(6-(4-(pyridin-2-yloxy)piperidin-1-yl)pyridin-3-yl)imidazo[1,2-a]pyridine-3-carbonitrile], the IC50 was 87 nM in the assay with TT (RET C634W) cells (Homo sapiens, TT, 72 h) and 28 nM in assay [1] (Homo sapiens, LC-2-ad, 72 h).

As to `COc1ccc(OC2CCN(c3ccc(-c4cc(OCC(C)(C)O)cc5ncc(C#N)n45)cn3)CC2)nn1` [Example 65, 7-(2-hydroxy-2-methylpropoxy)-5-(6-(4-((6-methoxypyridazin-3-yl)oxy)piperidin-1-yl)pyridin-3-yl)imidazo[1,2-a]pyridine-3-carbonitrile], the concentration for half-maximal inhibition (IC50) in the assay on TT (RET C634W) cells (Homo sapiens, TT, 72 h) came out at 38 nM; in assay [1] (Homo sapiens, LC-2-ad, 72 h), 34 nM.

`CC(C)(O)COc1cc(-c2ccc(N3CCC(O)(Cc4ccccc4)CC3)nc2)n2c(C#N)cnc2c1` [Example 66, 5-(6-(4-benzyl-4-hydroxypiperidin-1-yl)pyridin-3-yl)-7-(2-hydroxy-2-methylpro-poxy)imidazo[1,2-a]pyridine-3-carbonitrile]: the concentration for half-maximal inhibition (IC50) in the assay on TT (RET C634W) cells (Homo sapiens, TT, 72 h) was 117 nM; in assay [1] (Homo sapiens, LC-2-ad, 72 h), 55 nM.

Consider `COc1ccc(OC2CCN(c3ccc(-c4cc(OCC5(O)CC5)cc5ncc(C#N)n45)cn3)CC2)cn1` [Example 68, 7-((1-hydroxycyclopropyl)methoxy)-5-(6-(4-((6-methoxypyridin-3-yl)oxy)piperidin-1-yl)pyridin-3-yl)imidazo[1,2-a]pyridine-3-carbonitrile], for which the IC50 was 5 nM in the assay on TT (RET C634W) cells (Homo sapiens, TT, 72 h) and 10 nM in assay [1] (Homo sapiens, LC-2-ad, 72 h).

On to `COc1ccc(OC2CCN(c3ccc(-c4cc(OCC(O)C(F)(F)F)cc5ncc(C#N)n45)cn3)CC2)cn1` (stereo not drawn) [Example 69, 5-(6-(4-((6-methoxypyridin-3-yl)oxy)pi-peridin-1-yl)pyridin-3-yl)-7-(3,3,3-trifluoro-2-hydroxypropoxy)imidazo[1,2-a]pyri-dine-3-carbonitrile], for which the IC50 with TT (RET C634W) cells (Homo sapiens, TT, 72 h) was 57 nM; in assay [1] (Homo sapiens, LC-2-ad, 72 h), 49 nM.

The IC50 is the concentration needed to halve the response being measured. Lower therefore signals inhibition by little substance.

The values above are taken from US20220041588A1, “SUBSTITUTED IMIDAZO[1,2-A]PYRIDINE AND [1,2,4]TRIAZOLO[1,5-A]PYRIDINE COMPOUNDS AS RET KINASE INHIBITORS” (FOCHON PHARMACEUTICALS, LTD., priority 2018, published 2022).
